Results as given in patent US8952221B2, “Enzymes that synthesize zingiberene” (Board of Trustees of Michigan State University, priority 2011, dated 2015).

Test system: LA2167-ZIS zingiberene synthase
Assay: Recombinant LA2167-ZIS enzyme activity assay, soluble protein from E. coli BL21 plus isoprenoid diphosphate substrate, headspace SPME GC-MS
Format: biochemical, Solanum habrochaites
Conditions: for Peak Area % of products synthesized by recombinant LA2167-ZIS: substrate 2Z,6Z-Farnesyl diphosphate, SEQ ID NO:3 in pHIS8, E. coli BL21 DE3, GC-MS; for Products synthesized by LA2167-ZIS from the supplied substrate: 10 μM substrate, 2 μg soluble protein, 30 min at 30° C., GC-MS extracted ion 93
Description: The synthetic gene was excised from the pUC57 cloning vector by digestion with BamHI and SalI and ligated into the pHIS8 vector previously linearized by digestion with the same enzymes. Recombinant clones were transformed into E. coli BL21 cells. A 5-mL log-phase culture of E. coli BL21 cells containing the expression vector was induced by addition of IPTG to a final concentration of 0.1 mM. The induced cells were incubated with agitation at 25° C. for 16 h, and then harvested by centrifugation at 10,000 g for 15 min. The cell pellet was resuspended in 1 mL extraction buffer (50 mM HEPES pH 8, 5% glycerol, 100 mM KCl, 7.5 mM MgCl2 containing 1 mM dithiothreitol (DTT)) prior to sonication. Soluble proteins were harvested after centrifugation at 10,000 g for 20 min. The supernatant was used for subsequent enzyme assays. Two micrograms of soluble protein were mixed with 10 μM of substrate (GPP, NPP, EE-FPP or 2Z, 6Z-FPP (Echelon Biosciences Inc., Salt Lake City, Utah)) in a 2-mL glass vial. Reactions were allowed to proceed for 30 min at 30° C., and the glass vial headspace was collected with a 65 μm polydimethylsiloxane-divinylbenzene solid-phase microextraction fiber (Supelco, Bellefonte, Pa.). After 5 min of exposure at 42° C., the SPME fiber was retracted and transferred to the GC injector port for desorption at 200° C. onto the GC column for 3 min. The terpenes were separated on a DB5 column (10 m length, inner diameter and 0.25 um). The GC-MS analysis was performed as described previously […] et al. (Plant Physiol 153, 1212-1223 (2010)).

| Compound | Peak Area % of products synthesized by recombinant LA2167-ZIS | Products synthesized by LA2167-ZIS from the supplied substrate |
| --- | --- | --- |
| zingiberene | 97.839% |  |
| CC(C)=CCC/C(C)=C\CC/C(C)=C\COP(=O)(O)OP(=O)(O)O [2Z,6Z-farnesyl diphosphate, (2Z,6Z)-farnesyl diphosphate, reference compound] |  | zingiberene peak at about 4.65 is only observed |
| CC(C)=CCC/C(C)=C/COP(=O)(O)OP(=O)(O)O [geranyl diphosphate, reference compound] |  | failed to synthesize any products |
| C=C1C=CC(C(C)CCC=C(C)C)CC1 (stereo not drawn) [Sesquiphellandrene beta] | 0.567% |  |
| C=C(CCC=C(C)C)[C@@H]1CC=C(C)CC1 [Bisabolene beta] | 0.107% |  |
| CC(C)=CCCC(C)c1ccc(C)cc1 (stereo not drawn) [AR-curcumene] | 0.986% |  |
| bergamotene | 0.273% |  |
| CC(C)=CCC/C(C)=C\COP(=O)(O)OP(=O)(O)O [neryl diphosphate, reference compound] |  | failed to synthesize any products |
| C=C(C)C(CO)C/C=C(/C)CCC=C(C)C (stereo not drawn) [Sesquilavandulol <Z>] | 0.228% |  |
